The record followed here is patent US10899723B2, “Heterocyclic containing cyclopropyl FXR modulators” (Hepagene Therapeutics (HK) Limited, priority 2016, dated 2021).

One assay addresses T1, FXR (Homo sapiens, UniProt Q96RI1).
T1 construct: expressed in transfected cells; host or cells: HEK293T
T1 sequence (Q96RI1 1-486): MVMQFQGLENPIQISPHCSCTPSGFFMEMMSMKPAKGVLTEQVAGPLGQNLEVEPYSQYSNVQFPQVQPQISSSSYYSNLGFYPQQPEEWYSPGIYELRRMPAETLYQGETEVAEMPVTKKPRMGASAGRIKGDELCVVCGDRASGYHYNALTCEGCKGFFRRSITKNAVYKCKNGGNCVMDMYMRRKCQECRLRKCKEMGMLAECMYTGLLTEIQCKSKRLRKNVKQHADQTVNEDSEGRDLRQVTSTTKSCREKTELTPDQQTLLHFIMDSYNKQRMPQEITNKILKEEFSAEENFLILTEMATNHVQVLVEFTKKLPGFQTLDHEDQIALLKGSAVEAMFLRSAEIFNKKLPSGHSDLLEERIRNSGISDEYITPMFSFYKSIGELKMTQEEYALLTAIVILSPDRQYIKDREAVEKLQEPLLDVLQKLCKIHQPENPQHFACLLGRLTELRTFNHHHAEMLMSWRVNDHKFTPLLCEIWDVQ
In words: FXR Transactivation Assay (pBIND-FXR / pGL4.35 luciferase reporter in HEK293T). Conditions: HEK293T cells. It counts as cell-based. The method, then: FXR Transactivation Assay
pGL4.35 [luc2P/9XGAL4 UAS/Hygro]
DMEM medium, high glucose
Fetal Bovine Serum (FBS, heat-inactivated)
Penicillin-Streptomycin (10000 U/ml, 100 ml)
DMEM, High Glucose, HEPES, no Phenol Red
Opti-MEM® I Reduced Serum Medium
Steady-Glo™ Luciferase Assay System
TransIT-293 Transfection Reagent
GW4064 as a positive control
(§1) • 1. Hek293T cells were plated at 1.1*10^6/ml into a 100 mm dish. • 2. Cells were transfected with 8.4 μg of pBind-FXR, 1.26 μg of the reporter vector pGL4.35 (Promega). Cells were incubated at 37° C. under 5% CO2 atmosphere. • 3. All of compounds were 3-fold serial diluted from 10 mM stock for 10 doses in DMSO. • 4. Transfer compound dilutions into 384 well assay plates using liquid workstation. • 5. Seed 25 ul HEK293T cells into 384 well assay plate (prepared step 4) at 0.6*10^5/ml. Cells were incubated at 37° C. under 5% CO2 atmosphere overnight. • 6. Add 25 ul steady-Glo™ Luciferase Assay Reagent into each well of 384-well assay plate. • 7. Record the luminescence value on Envision 2104 plate reader. • 8. Calculate EC50 by fitting % Activity values and log of compound concentrations to nonlinear regression (dose response−variable slope) with Graphpad 5.0. FXR Coactivator Assay Reagents: LanthaScreen™ TR-FRET Farnesoid X Receptor Coactivator Assay GW4064 as a positive control Process: • 1. All of compounds were 3-fold serial diluted from 10 mM stock for 10 doses in DMSO. • 2. Dilute each 100× agonist serial dilution to 2× using Complete Coregulator buffer G. • 3. Transfer 10 μl of each of the 2× agonist serial dilutions to 384 well assay plates. • 4. […] Incubate at room temperature protected from light. • 7. Read the plate at wavelengths of 520 nm and 495 nm on Envision 2104 plate reader. • 8. Calculate the TR-FRET ratio by dividing the emission signal at 520 nm by the emission signal at 495 nm. • 9. Calculate EC50 by fitting % Activity values and log of compound concentrations to nonlinear regression (dose response−variable slope) with Graphpad 5.0.

The next assay addresses T2, FXR-LBD (Homo sapiens, UniProt Q96RI1).
T2 construct: Add 5 μl of 4×FXR-LBD to 384 well assay plates; purchased
T2 sequence (Q96RI1 262-486 limits assumed): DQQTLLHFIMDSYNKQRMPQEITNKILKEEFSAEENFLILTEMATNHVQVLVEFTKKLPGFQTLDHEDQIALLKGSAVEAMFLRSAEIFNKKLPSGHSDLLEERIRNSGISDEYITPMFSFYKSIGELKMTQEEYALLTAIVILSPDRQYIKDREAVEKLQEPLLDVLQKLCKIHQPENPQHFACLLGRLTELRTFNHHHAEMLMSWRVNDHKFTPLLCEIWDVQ
In words: FXR Coactivator Assay (LanthaScreen TR-FRET). It counts as biochemical. Here is the method: as §1
In general terms: TR-FRET usually uses a lanthanide donor and a delayed reading to cut background.

For `CC(C)c1onc(-c2c(Cl)cccc2Cl)c1COc1ccc(C2CC2(C)c2cccc(C(=O)O)c2)c(Cl)c1` (centres unmarked) [IV-02], the EC50 (as a rule, the concentration that produces a half-maximal response) at FXR lay within 101 to 400 nM; at FXR-LBD it was 10 to 100 nM.

For `CC1(c2ccc(OCc3c(-c4c(Cl)cccc4Cl)noc3C3CC3)cc2Cl)CC1c1cncc(C(=O)O)c1` (centres unmarked) [VI-05], the concentration for a half-maximal effect (EC50) at FXR and on FXR-LBD was 10 to 100 nM each time.

For `CC(C)c1onc(-c2c(Cl)cccc2Cl)c1COc1ccc(C2CC2(C)c2ccc(C(=O)O)cc2)c(Cl)c1` (centres unmarked) [IV-01], the concentration giving a half-maximal response (EC50) at FXR lay in the range of 401 to 5000 nM; at FXR-LBD it was 101 to 400 nM.

As to `CC(C)c1onc(-c2c(Cl)cccc2Cl)c1COc1ccc(C2CC2(C)c2cncc(C(=O)O)c2)c(Cl)c1` (single isomer, unassigned) [IV-05-2, 5-[2-(2-Chloro-4-[[3-(2,6-dichlorophenyl)-5-(propan-2-yl)-1,2-oxazol-4-yl]methoxy]phenyl)-1-methylcyclopropyl] pyridine-3-carboxylic Acid], the half-maximal effective concentration (EC50) on FXR was in the range of 101 to 400 nM; on FXR-LBD it was 10 to 100 nM.

As for `CC(C)c1onc(-c2c(Cl)cccc2Cl)c1COc1ccc(C2(C#N)CC2c2cccc(C(=O)O)c2)c(Cl)c1` (centres unmarked) [VII-02, 3-[2-(2-Chloro-4-[[3-(2,6-dichlorophenyl)-5-(propan-2-yl)-1,2-oxazol-4-yl]methoxy]phenyl)-2-cyanocyclopropyl] benzoic Acid], the EC50 on FXR was 101 to 400 nM; on FXR-LBD, 10 to 100 nM.

On to `CC(C)c1onc(-c2c(Cl)cccc2Cl)c1COc1ccc(C2(C)CC2c2cccc(C(=O)O)c2)c(Cl)c1` (centres unmarked) [VI-02], for which the EC50 at FXR and on FXR-LBD was 10 to 100 nM in each case.

In the case of `N#CC1(c2ccc(OCc3c(-c4c(Cl)cccc4Cl)noc3C3CC3)cc2Cl)CC1c1cccc(C(=O)O)c1` (centres unmarked) [VII-03, 3-[2-(2-Chloro-4-[[5-cyclopropyl-3-(2,6-dichlorophenyl)-1,2-oxazol-4-yl]methoxy]phenyl)-2-cyanocyclopropyl] benzoic Acid], the EC50 on FXR and at FXR-LBD was 10 to 100 nM throughout.

As to `CC(C)c1onc(-c2c(Cl)cccc2Cl)c1COc1ccc(C2(C#N)CC2c2ccc(C(=O)O)cc2)c(Cl)c1` (centres unmarked) [VII-01], the half-maximal effective concentration (EC50) was in the range of 401 to 5000 nM at FXR and 10 to 100 nM at FXR-LBD.

In the case of `CC(C)c1onc(-c2c(Cl)cccc2Cl)c1COc1ccc(C2CC2(C#N)c2cccc(C(=O)O)c2)c(Cl)c1` (centres unmarked) [Compound V-02], the results for the half-maximal effective concentration (EC50) at FXR and at FXR-LBD were 101 to 400 nM and 10 to 100 nM, respectively.

`COc1cc(C(=O)O)cc2sc(C3(C)CC3c3ccc(OCc4c(-c5c(Cl)cccc5Cl)noc4C4CC4)cc3Cl)nc12` (centres unmarked) [IV-15, 2-[2-(2-Chloro-4-[[5-cyclopropyl-3-(2,6-dichlorophenyl)-1,2-oxazol-4-yl]methoxy]phenyl)-1-methylcyclopropyl]-4-methoxy-1,3-benzothiazole-6-carboxylic Acid]: the values for the EC50 at FXR and on FXR-LBD were 101 to 400 nM and 10 to 100 nM, respectively.

As to `CC(C)c1onc(-c2c(Cl)cccc2Cl)c1COc1ccc(C2(C)CC2c2cncc(C(=O)O)c2)c(Cl)c1` (centres unmarked) [VI-04, 5-[2-(2-Chloro-4-[[3-(2,6-dichlorophenyl)-5-(propan-2-yl)-1,2-oxazol-4-yl]methoxy]phenyl)-2-methylcyclopropyl] pyridine-3-carboxylic Acid], the EC50 at FXR and at FXR-LBD was 10 to 100 nM in each case.

As for `CC(C)c1onc(-c2c(Cl)cccc2Cl)c1COc1ccc(C2CC2(C)c2cncc(C(=O)O)c2)c(Cl)c1` (single isomer, unassigned) [IV-05-1, 5-[2-(2-Chloro-4-[[3-(2,6-dichlorophenyl)-5-(propan-2-yl)-1,2-oxazol-4-yl]methoxy]phenyl)-1-methylcyclopropyl] pyridine-3-carboxylic Acid], the EC50 on FXR and at FXR-LBD was 10 to 100 nM each time.

For the compound `CC1(c2cncc(C(=O)O)c2)CC1c1ccc(OCc2c(-c3c(Cl)cccc3Cl)noc2C2CC2)cc1Cl` (centres unmarked) [IV-06, 5-[2-(2-Chloro-4-[[5-cyclopropyl-3-(2,6-dichlorophenyl)-1,2-oxazol-4-yl]methoxy]phenyl)-1-methylcyclopropyl] pyridine-3-carboxylic Acid], the EC50 on FXR and on FXR-LBD was 10 to 100 nM each time.

For `CC(C)c1onc(-c2c(Cl)cccc2Cl)c1COc1ccc(C2CC2(C)c2cc(C(=O)O)nn2C(C)C)c(Cl)c1` (centres unmarked) [IV-20], the EC50 was 101 to 400 nM on FXR and 10 to 100 nM on FXR-LBD.

Turning to `CC(C)c1onc(-c2c(Cl)cccc2Cl)c1COc1ccc(C2CC2(C)c2cncc(C(=O)O)c2)c(Cl)c1` (centres unmarked) [IV-05, 5-[2-(2-Chloro-4-[[3-(2,6-dichlorophenyl)-5-(propan-2-yl)-1,2-oxazol-4-yl]methoxy]phenyl)-1-methylcyclopropyl] pyridine-3-carboxylic Acid], the concentration giving a half-maximal response (EC50) at FXR and on FXR-LBD was 10 to 100 nM in each case.

With `CC1(c2cccc(C(=O)O)c2)CC1c1ccc(OCc2c(-c3c(Cl)cccc3Cl)noc2C2CC2)cc1Cl` (centres unmarked) [IV-03], the values for the 50% effective concentration (EC50) on FXR and on FXR-LBD were 101 to 400 nM and 10 to 100 nM, respectively.

As for `N#CC1(c2ccc(OCc3c(-c4c(Cl)cccc4Cl)noc3C3CC3)cc2Cl)CC1c1cccc(C(=O)O)c1` (single isomer, unassigned) [VII-03-1, 3-[2-(2-Chloro-4-[[5-cyclopropyl-3-(2,6-dichlorophenyl)-1,2-oxazol-4-yl]methoxy]phenyl)-2-cyanocyclopropyl] benzoic Acid], the EC50 was 101 to 400 nM at FXR and 10 to 100 nM at FXR-LBD.

In the case of `CC(C)c1onc(-c2c(Cl)cccc2Cl)c1COc1ccc(C2(C)CC2c2ccc(C(=O)O)cc2)c(Cl)c1` (centres unmarked) [VI-01, 4-(2-(2-Chloro-4-((3-(2,6-dichlorophenyl)-5-isopropylisoxazol-4-yl)methoxy)phenyl)-2-methylcyclopropyl) benzoic Acid], the EC50 lay in the range of 101 to 400 nM on FXR and 10 to 100 nM at FXR-LBD.

`CC1(c2ncc(C(=O)O)s2)CC1c1ccc(OCc2c(-c3c(Cl)cccc3Cl)noc2C2CC2)cc1Cl` (centres unmarked) [IV-19, 2-(2-(2-Chloro-4-((5-cyclopropyl-3-(2,6-dichlorophenyl)isoxazol-4-yl)methoxy)phenyl)-1-methylcyclopropyl) thiazole-5-carboxylic Acid] showed an EC50 at FXR-LBD of 101 to 400 nM.

As for `CC1(c2cncc(C(=O)NCCS(=O)(=O)O)c2)CC1c1ccc(OCc2c(-c3c(Cl)cccc3Cl)noc2C2CC2)cc1Cl` (centres unmarked) [IV-13], the EC50 on FXR-LBD is 10 to 100 nM.
